Literature values in patent US20240226212A1, “GENOMIC SEQUENCES FOR YEAST PROBIOTICS” (Worcester Polytechnic Institute, priority 2023, published 2024).

Test system: C. albicans

OCCc1c[nH]c2ccccc12 [tryptophol]
filamentation of C. albicans: shown to inhibit filamentation
